Measurements from patent US20090048301A1 (IMCLONE SYSTEMS INCORPORATED, priority 2003, published 2009).
Where two headings read alike, the source gives them in different places.

Key:
bovine tubulin = assay: In vitro tubulin polymerization assay (turbidity at 340 nm); format: biochemical; conditions: 10 μM compound, 30 minute data point, vs 1% DMSO control
Procedure, shortened: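 Bovine tubulin (97%, <3% MAPs) at 3 mg/ml final in G-PEM pH 7 with 1 mM GTP and 5% glycerol, added cold to compound wells at 37° C (1% DMSO final). A340 read each minute for 30 min; percent inhibition from 30-min point versus DMSO control.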

[1] = test system: A431, human epidermoid carcinoma cells; assay: Cell cycle analysis (FACS), mitotic arrest in G2/M; format: cell-based; conditions: read-out: FACS Assay: concentration required to achieve inhibition in FACS assay
Experimental: The cell cycle analysis was performed as follows. Cancer cells (A431, human epidennoid carcinoma cells) were maintained in culture in D-MEM media with 10% FBS and 1 mg/ml glutamate. Prior to experiment, cells were plated onto 6-well plates for a final density of 500,000 cells/well at the time of treatment. Cells were treated with the compounds of the invention at a concentration of about 0.01 to 1 μM final concentrations (final 0.1% DMSO) for 24 hours, then trypsinized, collected, rinsed in PBS (phosphate buffered saline), and fixed in 70% cold ethanol overnight at 4° C. The cells were then rinsed with PBS, resuspended in PBS with 0.2% Tween, RNAse was added (final 1 μg/ml), cells were incubated at 37° C. for 15 min, followed by addition of Propidium Iodide (final 50 μg/ml), and a 30 minute incubation at room temperature. DNA ploidy was analyzed using flow cytometers (Epics Excel, Beckman-Coulter, or Guava PCA-96, Guava Technologies) and mitotic arrest characterized by massive accumulation of cells in the G2/M phase of cell cycle.
Cancer cells (A431, human epidermoid cells) were maintained in culture in D-MEM media with 10% FBS and 1 mg/ml glutamate. Prior to experiment, cells are plated onto 6-well plates for a final density of 500,000 cells/well at the time of treatment. Cells were treated with compounds at 0.01-1 μM final concentrations (final […] DMS 0) for 24 hours, then trypsinized, collected, rinsed in PBS (phosphate buffered saline), and fixed in 70% cold ethanol overnight at 4° C. Cells were then rinsed with PBS, resuspended in PBS with 0.2% Tween, RNAse was added (final 1 μg/ml), cells were incubated at 37° C. for 15 min, followed by addition of Propidium Iodide (final 50 μg/ml), and a 30 minute incubation at room temperature. DNA ploidy was analyzed using cell sorters (Epics Excel, Beckman-Coulter, or Guava PCA-96, Guava Technologies) and mitotic arrest characterized by massive accumulation of cells in the G2/M phase of cell cycle.

Row | Structure (SMILES) | Tubulin Assay: percent inhibition at 10 μM based on 30 minute data (bovine tubulin) [%] | minimal effective concentration ([1]; Homo sapiens, A-431, 24 h) [µM] | minimal effective concentration ([1]; 24 hours) [µM]
1 | CS(=O)(=O)c1ccc(-c2nnc(-c3cccnc3Nc3cccc(S(N)(=O)=O)c3)[nH]2)cc1 [Compound 92, 3-{3-[5-(4-Methanesulfonyl-phenyl)-4H-[1,2,4]triazol-3-yl]-pyridin-2-ylamino}-benzenesulfonamide] | 74 | 10 | –
2 | COc1cc(Nc2ncccc2-c2nnc(-c3ccc(S(C)(=O)=O)cc3)[nH]2)cc(OC)c1 [Compound 74, (3,5-Dimethoxy-phenyl)-{3-[5-(4-methanesulfonyl-phenyl)-4H-[1,2,4]triazol-3-yl]-pyridin-2-yl}-amine] | 87 | 0.1 | –
3 | COc1cccc(Nc2nnc(-c3ccccc3NCc3ccc4[nH]ncc4c3)[nH]2)c1 [Compound 123, (5-{2-[(1H-Indazol-5-ylmethyl)-amino]-phenyl}-4H-[1,2,4]triazol-3-yl)-(3-methoxy-phenyl)-amine] | 75 | 1 | –
4 | Brc1cnn(-c2ncccc2-c2nnc(Nc3ccc4c(c3)OCO4)o2)c1 [Compound 210, Benzo[1,3]dioxol-5-yl-{5-[2-(4-bromo-pyrazol-1-yl)-pyridin-3-yl]-[1,3,4]oxadiazol-2-yl}-amine] | 87 | 1 | –
5 | c1coc(CNc2ncccc2-c2nnc(Nc3ccc4c(c3)OCO4)[nH]2)c1 [Compound 40, {3-[5-(Benzo[1,3]dioxol-5-ylamino)-4H-[1,2,4]triazol-3-yl]-pyridin-2-yl}-furan-2-ylmethyl-amine] | 71 | 1 | –
6 | c1coc(CNc2ncccc2-c2nnc(Nc3ccc4c(c3)OCCO4)o2)c1 [Compound 205, {3-[5-(2,3-Dihydro-benzo[1,4]dioxin-6-ylamino)-[1,3,4]oxadiazol-2-yl]-pyridin-2-yl}-furan-2-ylmethyl-amine] | 56 | – | 1
7 | FC(F)(F)Oc1cccc(-c2nnc(-c3ccccc3NCc3ccc4c(c3)OCO4)[nH]2)c1 [Compound 141, Benzo[1,3]dioxol-5-ylmethyl-{2-[5-(3-trifluoromethoxy-phenyl)-4H-[1,2,4]triazol-3-yl]-phenyl}-amine] | 88 | 0.1 | –
8 | c1ccc(-c2nnc(Nc3ccc4c(c3)OCCO4)o2)c(NCc2ccc3c(c2)OCO3)c1 [Compound 218, (5-{2-[(Benzo[1,3]dioxol-5-ylmethyl)-amino]-phenyl}-[1,3,4]oxadiazol-2-yl)-(2,3-dihydro-benzo[1,4]dioxin-6-yl)-amine] | 74 | 0.1 | –
9 | c1ccc(-c2nnc(Nc3ccc4c(c3)OCCO4)[nH]2)c(NCc2ccncc2)c1 [Compound 122, (2,3-Dihydro-benzo[1,4]dioxin-6-yl)-(5-{2-[(pyridin-4-ylmethyl)-amino]-phenyl}-4H-[1,2,4]triazol-3-yl)-amine] | 84 | 1 | –
10 | c1ccc(CNc2ccccc2-c2nnc(Nc3ccc4c(c3)OCCO4)o2)nc1 [Compound 217, (2,3-Dihydro-benzo[1,4]dioxin-6-yl)-(5-{2-[(pyridin-2-ylmethyl)-amino]-phenyl}-[1,3,4]oxadiazol-2-yl)-amine] | 100 | 0.1 | –
11 | CS(=O)(=O)c1ccc(-c2nnc(-c3cccnc3NCc3ccc(F)c(F)c3)[nH]2)cc1 [Compound 102, (3,4-Difluoro-benzyl)-{3-[5-(4-methanesulfonyl-phenyl)-4H-[1,2,4]triazol-3-yl]-pyridin-2-yl}-amine] | 88 | 0.1 | –
12 | c1cnc(NCc2ccc3c(c2)CCO3)c(-c2nnc(Nc3ccc4c(c3)OCO4)o2)c1 [Compound 198, {3-[5-(Benzo[1,3]dioxol-5-ylamino)-[1,3,4]oxadiazol-2-yl]-pyridin-2-yl}-(2,3-dihydro-benzofuran-5-ylmethyl)-amine] | 87 | 0.1 | –
13 | c1ccc(-c2nnc(Nc3ccc4c(c3)OCO4)[nH]2)c(NCc2ccc3[nH]ncc3c2)c1 [Compound 119, Benzo[1,3]dioxol-5-yl-(5-{2-[(1H-indazol-5-ylmethyl)-amino]-phenyl}-4H-[1,2,4]triazol-3-yl)-amine] | 76 | 1 | –
14 | COc1cccc(Nc2ncc(-c3ccccc3NCc3ccc4c(c3)OCCO4)o2)c1 [Compound 250, (5-{2-[(2,3-Dihydro-benzo[1,4]dioxin-6-ylmethyl)-amino]-phenyl}-oxazol-2-yl)-(3-methoxy-phenyl)-amine] | 60 | 1 | –
15 | Fc1ccc(CNc2ncccc2-c2nnc(-c3ccc4c(c3)OCO4)[nH]2)cc1F [Compound 101, [3-(5-Benzo[1,3]dioxol-5-yl-4H-[1,2,4]triazol-3-yl)-pyridin-2-yl]-(3,4-difluoro-benzyl)-amine] | 66 | 1 | –
16 | COc1ccc(CNc2ncccc2-c2nnc(Nc3ccc4c(c3)OCCO4)o2)cc1 [Compound 160, {3-[5-(2,3-Dihydro-benzo[1,4]dioxin-6-ylamino)-[1,3,4]oxadiazol-2-yl]-pyridin-2-yl}-(4-methoxy-benzyl)-amine] | 89 | 0.1 | –
17 | COc1cccc(Nc2ncc(-c3ccccc3NCc3ccc4c(c3)OCO4)o2)c1 [Compound 249, (5-{2-[(Benzo[1,3]dioxol-5-ylmethyl)-amino]-phenyl}-oxazol-2-yl)-(3-methoxy-phenyl)-amine] | 60 | 1 | –
18 | CS(=O)(=O)c1ccc(-c2nnc(-c3ccccc3NCc3ccc4c(c3)OCO4)[nH]2)cc1 [Compound 133, Benzo[1,3]dioxol-5-ylmethyl-{2-[5-(4-methanesulfonyl-phenyl)-4H-[1,2,4]triazol-3-yl]-phenyl}-amine] | 86 | 1 | –
19 | CS(=O)(=O)c1ccc(-c2nnc(-c3cccnc3NCc3cccc(F)c3)[nH]2)cc1 [Compound 107, (3-Fluoro-benzyl)-{3-[5-(4-methanesulfonyl-phenyl)-4H-[1,2,4]triazol-3-yl]-pyridin-2-yl}-amine] | 37 | – | –
20 | Cn1nc(-c2cccnc2NCc2ccncc2)nc1Nc1ccc2c(c1)OCCO2 [Compound 68, {3-[5-(2,3-Dihydro-benzo[1,4]dioxin-6-ylamino)-1-methyl-1H-[1,2,4]triazol-3-yl]-pyridin-2-yl}-pyridin-4-ylmethyl-amine] | 58 | – | –
21 | COc1cc(Nc2ncccc2-c2nnc(-c3ccc4c(c3)OCO4)[nH]2)cc(OC)c1 [Compound 93, [3-(5-Benzo[1,3]dioxol-5-yl-4H-[1,2,4]triazol-3-yl)-pyridin-2-yl]-(3,5-dimethoxy-phenyl)-amine] | 28 | – | –
22 | c1ccc(-c2nnc(Nc3ccc4c(c3)OCCO4)o2)c(NCc2cnccn2)c1 [Compound 221] | 80 | – | –
23 | c1ccc(-c2nnc(Nc3ccc4c(c3)OCCO4)o2)c(NCc2ccc3[nH]ncc3c2)c1 [Compound 222, (2,3-Dihydro-benzo[1,4]dioxin-6-yl)-(5-{2-[(1H-indazol-5-ylmethyl)-amino]-phenyl}-[1,3,4]oxadiazol-2-yl)-amine] | 95 | – | –
24 | FC(F)(F)c1cccc(-c2nnc(-c3cccnc3NCc3ccco3)[nH]2)c1 [Compound 96, Furan-2-ylmethyl-{3-[5-(3-trifluoromethyl-phenyl)-4H-[1,2,4]triazol-3-yl]-pyridin-2-yl}-amine] | 20 | – | –
25 | CS(=O)(=O)c1ccc(-c2nnc(-c3cccnc3NCCc3cccnc3)[nH]2)cc1 [Compound 99, {3-[5-(4-Methanesulfonyl-phenyl)-4H-[1,2,4]triazol-3-yl]-pyridin-2-yl}-(2-pyridin-3-yl-ethyl)-amine] | 47 | – | –
26 | CS(=O)(=O)c1ccc(-c2nnc(-c3cccnc3NCc3ccc(F)cc3)o2)cc1 [Compound 212, (4-Fluoro-benzyl)-{3-[5-(4-methanesulfonyl-phenyl)-[1,3,4]oxadiazol-2-yl]-pyridin-2-yl}-amine] | 38 | – | –
